We go through 16 compounds from patent US5719145A, “Amidine derivatives and platelet aggregation inhibitor containing the same” (Mitsui Toatsu Chemicals, Inc., priority 1996, dated 1998).

The test system of experiment [1] is human platelets (platelet-rich plasma). The experiment can be described thus: In vitro inhibition of platelet aggregation in human (ADP-induced, PRP). The experiment is classed as cell-based. The conditions noted are these: ADP final concentration 5 μM, read-out: Platelet aggregation inhibitory activity in human, IC50. The method, then: 2. Inhibition of platelet aggregation in human
Blood was collected from healthy human volunteers with an injection syringe and mixed one volume of 3.8% of sodium citrate as an anticoagulant to 9 volumes of the blood. Successively, the obtained blood mixture was subjected to centrifugation at 120×g for 15 minutes at room temperature to obtain platelet-rich plasma (PRP). An aliquot of PRP was further subjected to centrifugation at 1,200×g for 20 minutes to obtain platelet-poor plasma (PPP). Numbers of the platelet were measured with an automatic platelet counter: Sysmex PL-100 (manufactured by Toa Iyodenshi Co.) and PRP was diluted with PPP so as to adjust a platelet concentration to be about 250,000 particles/μl. Platelet aggregation was measured by the following procedure with a 6 channel aggregometer: HEMA TRACER 1 (manufactured by NKK Co.)
After incubation of 240 μl of PRP at 37° C. for 2 minutes, 30 μl of the solvent of specimen as a control or the specimen in various concentrations was added to PRP. Further 2 minutes later, 30 μl of adenosine diphosphate (final concentration: 5 μM) was added to induce platelet aggregation. An inhibition percentage was obtained by comparing the maximum aggregation of the specimen drug group with that of control. […]

The subject of experiment [2] is guinea pig platelets (platelet-rich plasma). The experiment is described as follows: In vitro inhibition of platelet aggregation in guinea pig (ADP-induced, PRP). It counts as cell-based. Particulars: Cavia porcellus, ADP final concentration 5 μM, read-out: Platelet aggregation inhibitory activity in guinea pig, IC50. The method, then: In vitro experiment of platelet aggregation inhibition
1. Inhibition of platelet aggregation in Guinea pig
Blood of male guinea pig was collected with an injection syringe which contains 3.8 % sodium citrate as an anticoagulant in a ratio of 1 volume to 9 volumes of the blood. Successively, the collected blood mixture was subjected to centrifugation at 120×g for 15 minutes at room temperature to obtain platelet-rich plasma (PRP). An aliquot of PRP was further subjected to centrifugation at 1,200×g for 15 minutes to obtain platelet-poor plasma (PPP). Numbers of the platelet in PRP were measured with an automatic platelet counter: Sysmex PL-100 (manufactured by Toa Iyodenshi Co.) and PRP was diluted with PPP so as to adjust a platelet concentration to be about 300,000 particles/ μl. Platelet aggregation was measured by the following procedure with a 6 channel aggregometer: HEMA TRACER 1 (manufactured by NKK Co.).
After incubation of 240 μl of PRP at 37° C. for 2 minutes, 30 μl of the solvent of specimen as a control or of the specimen in various concentrations was added to PRP. Further 2 minutes later, 30 μl of adenosine diphosphate (final concentration: 5μM) was added to induce platelet aggregation. An inhibition percentage was obtained by comparing the maximum aggregation of the specimen drug group with that of control. […]

For experiment [3] the test system is unchanged. The experiment can be described thus: Inhibition against platelet aggregation ability after oral administration in guinea pig. Particulars: Cavia porcellus, 1 h, oral administration: 37 μmol/kg, blood collected after an hour, ADP 5 μM, read-out: Aggregation inhibiting rate (%). It counts as in vivo. The method, then:
Experiment for inhibition against platelet aggregation ability after oral administration The specimen drug was dissolved or suspended at a concentration of 18.5 μmol/ml in a physiological saline containing 0.5% of Tween 80. […] A physiological saline containing 0.5% of Tween 80 was similarly administered as a control. […] The blood mixture was centrifuged at 800 r.p.m. for 20 minutes at room temperature to obtain PRP in the upper layer. The lower layer was further centrifuged at 3000 r.p.m. for 15 minutes to obtain PPP in upper layer. […] Platelet aggregation ability was measured according to the method for measuring in vitro platelet aggregation. […] HEMA TRACER 1 (manufactured by NKK Co.). After incubation of PRP at 37° C. for 2 minutes, a physiological saline (30 μl) was added. […] An inhibiting ratio was obtained by comparing the maximum aggregation of the specimen drug group with that of control.

Experiment [4] concerns the target T1, human fibrinogen receptor GP IIb/IIIa (Homo sapiens, UniProt P05106+P08514).
T1 construct: Concentrated and lyophilized human platelet (20 vial) (Organon Teknika Co.) was lysed; tissue Organon Teknika Co; host or cells: human platelets (lyophilized), lysed in Triton X-100
The experiment can be described thus: Binding inhibition of biotinylated fibrinogen to GP IIb/IIIa. Particulars: purified human GP IIb/IIIa, read-out: Inhibition of GPIIb/IIIa . Fibrinogen Binding, IC50. The method, then: Experiment for binding inhibition between GP IIb/IIIa and fibrinogen
1. Purification of human fibrinogen receptor GP IIb/IIIa
Concentrated and lyophilized human platelet (20 vial) (Organon Teknika Co.) was lysed in an antienzymic solution (80 ml) (1% Triton X-100, 10 mM Tris-HCl, 150 mM NaCl, 1 mM CaCl2, 10 μM leupeptin, 1 mM phenylmethane sulfonyl fluoride, pH 7.4), allowed to incubate for an hour at 4° C., and centrifuged at 30,000×g for 15 minutes to recover the supernatant solution containing 150 mg of protein. The GP IIb/IIIa was purified according to the method of Phillips et al. [Methods in Enzymology Vol. 215, (J. J. Hawigar, Eds.), 244-263, Acedemic Press Inc., San Diego].
2. Preparation of biotinylated fibrinogen
Human fibrinogen Grade L (KABI Co.) was purified by using Shepharose CL-6B and Lysine-Sepharose. Thus purified human fibrinogen (2.3 mg/ml) was dialyzed for 3 hours with 0.1M aqueous sodium bicarbonate solution at room temperature and successively diluted to 1 mg/ml. To the solution (4.5 ml) obtained, NHC-LC-Biotin (2 mg) (Pierce Co.) was added and reacted for 1 hour at room temperature to biotinylate fibrinogen. The reaction mixture was dialyzed at 4° C. for 24 hours with TBS (20 mM Tris-HCl, 150 mM NaCl, 1 mM CaCl2, 1 mM MgCl2, pH 7.4) to obtain biotinylated fibrinogen.
3. Binding inhibition of biotinylated fibrinogen to GP IIb/IIIa
Specimen drugs were dissolved and diluted with TBS containing 1% BSA. To each solution, an equal volume of biotinylated fibrinogen (2 μg/ml) dissolved in TBS containing 1% BSA, was added. The inhibition percentage of specimen drugs were measured by the method of Mori et al. [Jpn. J. Thromb. Hemost., 2, 323-399 (1991) with small modification].
Purified GP IIb/IIIa was diluted to 1.5 μg/ml in TBS containing 0.0005% of Triton X-100. The GP IIb/IIIa solution was added to a 96 well microplate (E.I.A/R.I.A. Plate, Costar Co.) in a volume of 100 μl for each well, and incubated at 4° C. for 24 hours to immobilize GP IIb/IIIa. The microplate was washed twice with a washing solution (TBS containing 0.01% of Tween 20). Thereafter TBS containing 3.5% of BSA was added to each well in a volume of 200 μl and blocking was carried out for about an hour at room temperature. The microplate was further washed twice with the washing solution, and successively a mixture of the specimen drug and the biotinylated fibrinogen was added in a volume of 100 μl/well and incubated for 24 hours at room temperature. The microplate was thereafter washed five times, and peroxidase-labeled streptoavidin (a kit of Amersham Co.) which was previously diluted 3000 times with TBS was added in a volume of 100 μl/well and incubated for about 30 minutes at room temperature. After washing the microplate 5 times, a 0.05M phosphate-citrate buffer solution (pH5) containing o-phenylenediamine(0.4 mg/ml) (manufactured by Sigma Co.) and H2 O2 (0.012%) was added in a volume of 200 μl/well to develop color for 20-40 minutes. The reaction was stopped by addition of 0.3M sulfuric acid in a volume of 50 μl/well and absorbance at 490 nm was measured with Immunoreader NJ-200 (manufactured by Inter Med Co.). […]

The structures appear in SMILES notation. Where a name gives a salt, the structure may show the parent alone.

T1 sequence (P08514 32-887 limits assumed): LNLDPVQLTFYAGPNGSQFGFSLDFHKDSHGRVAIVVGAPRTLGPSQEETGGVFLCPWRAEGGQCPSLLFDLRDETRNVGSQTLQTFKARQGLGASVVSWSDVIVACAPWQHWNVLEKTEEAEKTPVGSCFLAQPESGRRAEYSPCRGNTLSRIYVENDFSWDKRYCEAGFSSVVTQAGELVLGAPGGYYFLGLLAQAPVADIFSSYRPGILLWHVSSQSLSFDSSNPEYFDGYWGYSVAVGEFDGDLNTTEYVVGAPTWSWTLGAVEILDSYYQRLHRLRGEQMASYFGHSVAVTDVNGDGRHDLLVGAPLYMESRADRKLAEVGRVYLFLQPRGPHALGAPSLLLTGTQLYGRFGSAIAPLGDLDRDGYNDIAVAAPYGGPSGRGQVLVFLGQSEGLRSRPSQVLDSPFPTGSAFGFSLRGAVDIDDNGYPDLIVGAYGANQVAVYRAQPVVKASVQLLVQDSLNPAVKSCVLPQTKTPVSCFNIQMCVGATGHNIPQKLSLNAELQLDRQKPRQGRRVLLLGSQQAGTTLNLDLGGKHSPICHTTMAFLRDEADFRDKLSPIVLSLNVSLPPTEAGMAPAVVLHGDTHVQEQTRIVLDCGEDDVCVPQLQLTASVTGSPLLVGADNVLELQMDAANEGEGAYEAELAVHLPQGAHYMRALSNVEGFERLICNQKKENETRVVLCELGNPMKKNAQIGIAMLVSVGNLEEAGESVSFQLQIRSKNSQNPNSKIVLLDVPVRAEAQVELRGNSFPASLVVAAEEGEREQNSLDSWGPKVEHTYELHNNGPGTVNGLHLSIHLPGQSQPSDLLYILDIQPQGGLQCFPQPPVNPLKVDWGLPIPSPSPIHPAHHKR
T1 sequence (P08514 891-1039 partner limits assumed): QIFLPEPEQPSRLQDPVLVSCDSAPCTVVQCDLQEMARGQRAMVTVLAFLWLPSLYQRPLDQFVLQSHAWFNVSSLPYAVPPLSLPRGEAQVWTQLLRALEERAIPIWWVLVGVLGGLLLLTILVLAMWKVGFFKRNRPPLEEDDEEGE
T1 sequence (P05106 27-788): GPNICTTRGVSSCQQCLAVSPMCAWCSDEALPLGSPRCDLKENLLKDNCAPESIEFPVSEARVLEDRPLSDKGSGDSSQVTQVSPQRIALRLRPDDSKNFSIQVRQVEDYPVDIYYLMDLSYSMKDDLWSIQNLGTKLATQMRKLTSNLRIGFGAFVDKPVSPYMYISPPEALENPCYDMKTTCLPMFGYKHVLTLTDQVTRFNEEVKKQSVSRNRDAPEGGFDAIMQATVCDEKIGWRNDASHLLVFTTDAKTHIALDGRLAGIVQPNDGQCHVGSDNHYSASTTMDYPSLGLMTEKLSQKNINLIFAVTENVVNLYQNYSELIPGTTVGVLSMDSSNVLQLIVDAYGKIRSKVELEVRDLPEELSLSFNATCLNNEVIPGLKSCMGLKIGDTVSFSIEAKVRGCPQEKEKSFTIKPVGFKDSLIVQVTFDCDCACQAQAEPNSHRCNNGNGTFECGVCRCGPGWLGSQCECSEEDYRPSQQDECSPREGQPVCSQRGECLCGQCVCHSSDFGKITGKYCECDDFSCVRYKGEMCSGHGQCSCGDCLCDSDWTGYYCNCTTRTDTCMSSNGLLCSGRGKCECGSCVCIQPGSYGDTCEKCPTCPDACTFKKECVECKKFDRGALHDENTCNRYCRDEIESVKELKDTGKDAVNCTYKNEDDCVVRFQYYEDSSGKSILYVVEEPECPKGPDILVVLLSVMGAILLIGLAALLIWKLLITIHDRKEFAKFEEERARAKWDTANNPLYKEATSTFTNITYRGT

Regarding `N=C(c1ccc(C(=O)Nc2ccc3c(c2)CC(CC(=O)O)CO3)cc1)N1CCOCC1` (centres unmarked) [Example 5, 6-[[4-(morpholinoiminomethyl)benzoyl]amino]chroman-3-acetic acid hydrochloride], the IC50 in experiment [1] stood at 66 nM.
Same read-out and setting: under `N=C(c1ccc(C(=O)Nc2ccc3c(c2)OCC(CC(=O)O)C3)cc1)N1CCOCC1` (centres unmarked) [Example 9, 7-[[4-(morpholinoiminomethyl)benzoyl]amino]chroman-3-acetic acid hydrochloride] stands 171 nM.
As to `CCOC(=O)CC1CCc2ccc(NC(=O)c3ccc(C(=N)N4CCN(C)CC4)cc3)cc2C1` (centres unmarked) [Example 14, ethyl 7-[[4-(4-methylpiperazinoiminomethyl)benzoyl]amino]-1,2,3,4-tetrahydronaphthalene-2-acetate dihydrochloride], in experiment [2], the IC50 is 66 nM. For the same compound, the inhibition at 37 µmol/kg in experiment [3] is > 90%.
With `CN1CCN(C(=N)c2ccc(C(=O)Nc3ccc4c(c3)CC(CC(=O)O)CC4)cc2)CC1` (centres unmarked) [Example 15, dihydrochloride], the IC50 in experiment [1] stood at 110 nM.
For `CCOC(=O)CC1CCc2ccc(NC(=O)c3ccc(C(=N)N4CCCCC4)cc3)cc2C1` (centres unmarked) [Example 17, ethyl 7-[[4-(piperidinoiminomethyl)benzoyl]amino]-1,2,3,4-tetrahydronaphthalene-2-acetate hydrochloride], in experiment [2], the IC50 amounted to 270 nM. The inhibition at 37 µmol/kg in experiment [3] is > 90%.
As to `CCOC(=O)CC1CCc2ccc(NC(=O)c3ccc(C(=N)N4CCCC4)cc3)cc2C1` (centres unmarked) [Example 21, ethyl 7-[[4-(pyrrolidinoiminomethyl)benzoyl]amino]-1,2,3,4-tetrahydronaphthalene-2-acetate hydrochloride], in experiment [2], the IC50 was found to be 94 nM. In addition, in experiment [3], the inhibition at 37 µmol/kg is > 90%.
In the case of `CCOC(=O)CC1CCc2ccc(NC(=O)c3ccc(C(=N)N4CCCCCC4)cc3)cc2C1` (centres unmarked) [Example 22, ethyl 7-[[4-(homopiperidinoiminomethyl)benzoyl]amino]-1,2,3,4-tetrahydronaphthalene-2-acetate hydrochloride], the IC50 in experiment [2] came out at 250 nM. The inhibition at 37 µmol/kg in experiment [3] is > 90%.
With `C#CCNC(=N)c1ccc(C(=O)Nc2ccc3c(c2)CC(CC(=O)OCC)CO3)cc1` (centres unmarked) [Example 26, ethyl 6-[[4-(N^2-propargylamidino)benzoyl]amino]chroman-3-acetate hydrochloride], in experiment [2], the IC50 was determined as 190 nM. Also, the inhibition at 37 µmol/kg in experiment [3] was > 90%.
For `C#CCNC(=N)c1ccc(C(=O)Nc2ccc3c(c2)CC(CC(=O)O)CO3)cc1` (centres unmarked) [Example 27, 6-[[4-(N^2-propargylamidino)benzoyl]amino]chroman-3-acetic acid hydrochloride], the IC50 in experiment [1] came out at 78 nM.
Take `NC(=NCc1ccco1)c1ccc(C(=O)Nc2ccc3c(c2)CC(CC(=O)O)CC3)cc1` (centres unmarked) [Example 30, 7-[[4-[N^2-(2-furfuryl)amidino]benzoyl]amino]-1,2,3,4-tetrahydronaphthalene-2-aceticacid hydrochloride]: the IC50 in experiment [4] was determined as 0.14 nM; in experiment [2], 180 nM.
As for `CCOC(=O)CC1COc2ccc(NC(=O)c3ccc(C(=N)NCc4ccco4)cc3)cc2C1` (centres unmarked) [Example 31, ethyl 6-[[4-[N^2-(2-furfuryl)amidino]benzoyl]amino]chroman-3-acetate hydrochloride], the IC50 in experiment [2] was found to be 140 nM. Besides, the inhibition at 37 µmol/kg in experiment [3] was > 90%.
For the compound `N=C(NCc1ccco1)c1ccc(C(=O)Nc2ccc3c(c2)CN(CC(=O)O)CC3)cc1` [Example 33, 7-[[4-[N^2-(2-furfuryl)amidino]benzoyl]amino]-1,2,3,4-tetrahydroisoquinoline-2-acetic acid dihydrochloride], in experiment [1], the IC50 turned out to be 160 nM.
Regarding `C#CCN(C)C(=N)c1ccc(C(=O)Nc2ccc3c(c2)CC(CC(=O)O)CC3)cc1` (centres unmarked) [Example 35, 7-[[4-(N^2-methyl-N^2-propargylamidino)benzoyl]amino]-1,2,3,4-tetrahydronaphthalene-2-acetic acid hydrochloride], the IC50 in experiment [1] was 160 nM.
As for `N=C(NCc1cccs1)c1ccc(C(=O)Nc2ccc3c(c2)CC(CC(=O)O)CC3)cc1` (centres unmarked) [Example 37, 7-[[4-[N^2-(2-thenyl)amidino]benzoyl]amino]-1,2,3,4-tetrahydronaphthalene-2-acetic acid hydrochloride], the results for the IC50 in experiment [4] and in experiment [2] were 0.04 nM and 220 nM, respectively.
As to `CCOC(=O)CC1CCc2ccc(NC(=O)c3ccc(C(=N)NCc4cccnc4)cc3)cc2C1` (centres unmarked) [Example 40, ethyl 7-[[4-[N^2-(3-picolyl)amidino]benzoyl]amino]-1,2,3,4-tetrahydronaphthalene-2-acetatedihydrochloride], in experiment [2], the IC50 was 110 nM. Further, the inhibition at 37 µmol/kg in experiment [3] was > 90%.
Turning to `CCCN=C(N)c1ccc(C(=O)Nc2ccc3c(c2)CC(CC(=O)OCC)CC3)cc1` (centres unmarked) [Reference Example 9, ethyl 7-[[4-[N^2-(n-propyl)amidino]benzoyl]amino]-1,2,3,4-tetrahydronaphthalene-2-acetate hydrochloride, reference compound], in experiment [2], the IC50 is 520 nM. Also, the inhibition at 37 µmol/kg in experiment [3] came out at 3%.
